Measurements from patent publication US20080242663A1, “NOVEL PYRIMIDINE DERIVATIVES 698” (ASTRAZENECA AB, priority 2007, published 2008).

Legend:
recombinant EphB4 = target: T1, recombinant EphB4 (Homo sapiens, UniProt P54760); assay: In vitro EphB4 enzyme assay (Alphascreen); assay type: biochemical
T1 construct: amino acids 563-987; Swiss-Prot Acc; No. P54760; purchased ProQinase GmbH 0178-0000-3
T1 sequence (P54760 563-987): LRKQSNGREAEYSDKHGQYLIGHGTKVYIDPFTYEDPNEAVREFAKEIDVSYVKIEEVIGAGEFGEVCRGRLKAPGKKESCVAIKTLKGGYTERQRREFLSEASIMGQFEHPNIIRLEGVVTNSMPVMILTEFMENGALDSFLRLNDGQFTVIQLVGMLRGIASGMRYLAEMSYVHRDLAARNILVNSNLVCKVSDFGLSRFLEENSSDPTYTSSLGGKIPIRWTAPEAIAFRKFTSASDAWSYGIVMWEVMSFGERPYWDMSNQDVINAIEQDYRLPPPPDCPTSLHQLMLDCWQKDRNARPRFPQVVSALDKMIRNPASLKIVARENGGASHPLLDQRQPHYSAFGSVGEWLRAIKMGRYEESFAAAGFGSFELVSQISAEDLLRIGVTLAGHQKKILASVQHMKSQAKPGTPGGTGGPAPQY
Summary of the method: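 Recombinant EphB4 phosphorylated biotin-poly-GAT with Mg-ATP for 1 hr at room temperature; EDTA stop, then Alphascreen donor/acceptor (anti-phosphotyrosine) beads for 20 hrs in the dark. After minimum subtraction, signal plotted against compound concentration to derive IC50.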

human EphB4 = target: T2, human EphB4 (Homo sapiens, UniProt P54760); assay: In vitro EphB4 cell assay (EphB4 phosphorylation in EphB4-CHO cells, sandwich ELISA); assay type: cell-based; conditions: Assay B
T2 construct: to generate full-length EphB4 containing a Myc-His tag at the C-terminus; expressed in transfected cells; EphB4-CHO)
T2 sequence (P54760 16-987): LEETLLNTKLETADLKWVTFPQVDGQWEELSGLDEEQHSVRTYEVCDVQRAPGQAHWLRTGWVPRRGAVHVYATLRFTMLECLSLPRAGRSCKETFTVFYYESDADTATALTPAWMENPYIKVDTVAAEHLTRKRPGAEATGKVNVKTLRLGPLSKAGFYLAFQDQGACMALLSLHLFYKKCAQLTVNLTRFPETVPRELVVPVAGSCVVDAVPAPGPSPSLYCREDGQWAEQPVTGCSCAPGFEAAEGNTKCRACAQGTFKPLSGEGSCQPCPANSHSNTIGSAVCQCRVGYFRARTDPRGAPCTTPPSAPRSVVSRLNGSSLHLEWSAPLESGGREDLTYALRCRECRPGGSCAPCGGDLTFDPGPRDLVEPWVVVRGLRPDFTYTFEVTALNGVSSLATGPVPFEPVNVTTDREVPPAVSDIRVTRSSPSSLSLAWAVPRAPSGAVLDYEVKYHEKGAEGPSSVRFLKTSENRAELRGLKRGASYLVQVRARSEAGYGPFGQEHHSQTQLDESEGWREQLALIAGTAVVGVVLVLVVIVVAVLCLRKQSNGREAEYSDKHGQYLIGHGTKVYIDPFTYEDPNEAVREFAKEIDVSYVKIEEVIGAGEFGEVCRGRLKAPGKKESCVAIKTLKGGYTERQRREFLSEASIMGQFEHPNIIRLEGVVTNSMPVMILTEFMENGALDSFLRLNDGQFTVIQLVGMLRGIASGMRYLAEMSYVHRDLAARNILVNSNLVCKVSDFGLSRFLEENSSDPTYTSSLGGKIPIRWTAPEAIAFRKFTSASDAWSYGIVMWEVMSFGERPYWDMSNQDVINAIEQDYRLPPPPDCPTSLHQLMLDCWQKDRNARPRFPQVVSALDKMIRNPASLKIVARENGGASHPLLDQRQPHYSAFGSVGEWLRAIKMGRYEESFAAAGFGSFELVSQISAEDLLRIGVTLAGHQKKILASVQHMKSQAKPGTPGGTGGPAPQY
Procedure: The assay identifies inhibitors of cellular EphB4 by measuring a decrease in phosphorylation of EphB4 following treatment of cells with compound. The endpoint assay used a sandwich ELISA to detect EphB4 phosphorylation status. Briefly, Myc-tagged EphB4 from treated cell lysate was captured on the ELISA plate via an anti-c-Myc antibody. The phosphorylation status of captured EphB4 was then measured using a generic phosphotyrosine antibody conjugated to HRP via a colourimetric output catalysed by HRP, with level of EphB4 phosphorylation directly proportional to the colour intensity. Absorbance was measured spectrophotometrically at 450 nm.
Full length human EphB4 (Swiss-Prot Acc. No. P54760) was cloned using standard techniques from cDNA prepared from HUVEC using RT-PCR. The cDNA fragment was then sub-cloned into a pcDNA3.1 expression vector containing a Myc-His epitope tag to generate full-length EphB4 containing a Myc-His tag at the C-terminus (Invitrogen Ltd. Paisley, UK). […] CHO-K1 cells were engineered to stably express the EphB4-Myc-His construct using standard stable transfection techniques, to generate cells hereafter termed EphB4-CHO.
On day 2, the cells were incubated overnight in 90 μl/well of media containing 0.1% Hyclone stripped-serum (Fisher Scientific UK, Catalogue No. SH30068.02). […] A 10 μl aliquot of each compound dilution was transferred to the cell plates in duplicate wells, and the cells incubated for 1 hr at 37° C.
Following compound treatment, cells were stimulated with clustered ephrin-B2 at a final concentration of 1 μg/ml for 20 minutes at 37° C. to induce EphB4 phosphorylation. Following stimulation, the medium was removed and the cells lysed in 100 μl/well of lysis buffer (25 mM Tris HCl, 3 mM EDTA, 3 mM EGTA, 50 mM NaF, 2 mM orthovanadate, 0.27M Sucrose, 10 mM β-glycerophosphate, 5 mM sodium pyrophosphate, 2% Triton X-100, pH 7.4).
Plates were washed twice with PBS/0.05% Tween-20 and incubated with 100 μl/well cell lysate overnight at 4° C. […] ELISA plates were washed four times with PBS/0.05% Tween-20 and developed with 100 μl/well TMB substrate (Sigma-Aldrich Company Ltd, Catalogue No. T0440). The reaction was stopped after 15 minutes with the addition of 25 μl/well 2M sulphuric acid. The absorbances were determined at 450 nm using the Tecan SpectraFluor Plus. The minimum value was subtracted from all values, and the signal plotted against compound concentration to generate IC50 data.

Row | SMILES | IC50 (recombinant EphB4) [nM] | IC50 (human EphB4) [nM]
1 | CN(c1ccnc(Nc2cc(F)cc(N3CCOCC3)c2)n1)c1ccc(F)c(Cl)c1F [Example 2.2, N′-(3-chloro-2,4-difluoro-phenyl)-N-(3-fluoro-5-morpholin-4-yl-phenyl)-N′-methyl-pyrimidine-2,4-diamine] | 2180 | 74
2 | CN(c1ccnc(Nc2cc(N3CCCOCC3)cc(N3CCOCC3)c2)n1)c1ccc(F)c(Cl)c1F [Example 2.10, N′-(3-chloro-2,4-difluoro-phenyl)-N′-methyl-N-[3-morpholin-4-yl-5-(1,4-oxazepan-4-yl)phenyl]pyrimidine-2,4-diamine] | 1270 | 11
3 | CC(C)OCc1cc(Nc2nccc(N(C)c3ccc(F)c(Cl)c3F)n2)cc(N2CCOCC2)c1 [Example 2.15, N′-(3-chloro-2,4-difluoro-phenyl)-N′-methyl-N-[3-morpholin-4-yl-5-(propan-2-yloxymethyl)phenyl] pyrimidine-2,4-diamine] | 1110 | 17
4 | CN(c1ccnc(Nc2cc(CN3CCCC3)cc(N3CCOCC3)c2)n1)c1ccc(F)c(Cl)c1F [Example 2.17, N′-(3-chloro-2,4-difluoro-phenyl)-N′-methyl-N-[3-morpholin-4-yl-5-(pyrrolidin-1-ylmethyl)phenyl]py-rimidine-2,4-diamine] | 28.9 | 21
5 | CN1CCN(c2cccc(Nc3nccc(N(C)c4ccc(F)c(Cl)c4F)n3)c2)CC1 [Example 4, N′-(3-chloro-2,4-difluoro-phenyl)-N′-methyl-N-[3-(4-methylpiperazin-1-yl)phenyl]pyrimidine-2,4-diamine] | 63.8 | 1710
6 | COCCN(c1ccnc(Nc2cc(N3CCOCC3)cc(N3CCOCC3)c2)n1)c1cc(OC)ccc1C [Example 22.1, N-(3,5-dimorpholin-4-ylphenyl)-N′-(2-methoxyethyl)-N′-(5-methoxy-2-methyl-phenyl)pyrimidine-2,4-diamine] | 1480 | 
7 | COc1ccc(C)c(N(c2ccnc(Nc3cc(N4CCOCC4)cc(N4CCOCC4)c3)n2)C(C)C)c1 [Example 22.2, N-(3,5-dimorpholin-4-ylphenyl)-N′-(5-methoxy-2-methyl-phenyl)-N′-propan-2-yl-pyrimidine-2,4-diamine] | 1860 | 
8 | CCN(c1ccnc(Nc2cc(N3CCOCC3)cc(N3CCOCC3)c2)n1)c1cc(OC)ccc1C [Example 22.3, N-(3,5-dimorpholin-4-ylphenyl)-N′-ethyl-N′-(5-methoxy-2-methyl-phenyl)pyrimidine-2,4-diamine] | 1190 | 
9 | COc1ccc(C)c(N(CCO)c2ccnc(Nc3cc(N4CCOCC4)cc(N4CCOCC4)c3)n2)c1 [Example 22.4, 2-[[2-[(3,5-dimorpholin-4-ylphenyl)amino]pyrimidin-4-yl]-(5-methoxy-2-methyl-phenyl)amino]ethanol] | 802 | 
10 | CN(c1cccc(Cl)c1)c1ccnc(Nc2cc(N3CCOCC3)cc(N3CCC(O)CC3)c2)n1 [Example 23, 1-[3-({4-[(3-chlorophenyl)(methyl)amino]pyrimidin-2-yl}amino)-5-morpholin-4-ylphenyl]piperidin-4-ol] | 1.71 | 
11 | CN1CCN(c2cc(Nc3nccc(N(C)c4cccc(Cl)c4)n3)cc(N3CCOCC3)c2)CC1 [Example 24, N4-(3-chlorophenyl)-N4-methyl-N2-[3-(4-methylpiperazin-1-yl)-5-morpholin-4-ylphenyl]pyrimidine-2,4-diamine] | 0.581 | 
12 | Cc1cccc(CO)c1N(C)c1ccnc(Nc2cc(N3CCOCC3)cc(N3CCOCC3)c2)n1 [Example 25.1, (2-((2-(3,5-dimorpholinophenylamino)pyrimidin-4-yl)(methyl)amino)-3-methylphenyl)methanol] | 52.8 | 
13 | COc1cccc(C)c1N(C)c1ccnc(Nc2cc(N3CCOCC3)cc(N3CCOCC3)c2)n1 [Example 25.2, N2-(3,5-dimorpholinophenyl)-N4-(2-methoxy-6-methylphenyl)-N4-methylpyrimidine-2,4-diamine] | 76.9 | 
14 | CN(c1ccnc(Nc2cc(N3CCOCC3)cc(N3CCOCC3)c2)n1)c1cc(CO)ccc1F [Example 25.3, (3-((2-(3,5-dimorpholinophenylamino)pyrimidin-4-yl)(methyl)amino)-4-fluorophenyl)methanol] | 11.5 | 
15 | CN(c1ccnc(Nc2cc(N3CCOCC3)cc(N3CCOCC3)c2)n1)c1cccc(CO)c1F [Example 25.4, (3-((2-(3,5-dimorpholinophenylamino)pyrimidin-4-yl)(methyl)amino)-2-fluorophenyl)methanol] | 11.6 | 
16 | CC(=O)c1ccc(C)c(N(C)c2ccnc(Nc3cc(N4CCOCC4)cc(N4CCOCC4)c3)n2)c1 [Example 25.5, 1-(3-((2-(3,5-dimorpholinophenylamino)pyrimidin-4-yl)(methyl)amino)-4-methylphenyl)ethanone] | 127 | 
17 | COc1ccc(F)c(N(C)c2ccnc(Nc3cc(N4CCOCC4)cc(N4CCOCC4)c3)n2)c1 [Example 25.6, N2-(3,5-dimorpholinophenyl)-N4-(2-fluoro-5-methoxyphenyl)-N4-methylpyrimidine-2,4-diamine] | 7.88 | 
18 | COc1ccc(CO)c(N(C)c2ccnc(Nc3cc(N4CCOCC4)cc(N4CCOCC4)c3)n2)c1 [Example 25.7, (2-((2-(3,5-dimorpholinophenylamino)pyrimidin-4-yl)(methyl)amino)-4-methoxyphenyl)methanol] | 10.3 | 
19 | CN(c1ccnc(Nc2cc(N3CCOCC3)cc(N3CCOCC3)c2)n1)c1cc(Cl)ccc1CO [Example 25.8, (4-chloro-2-((2-(3,5-dimorpholinophenylamino)pyrimidin-4-yl)(methyl)amino)phenyl)methanol] | 6.39 | 
